Measurements from patent publication US20260242419A1, “A CYCLIC PEPTIDE FOR TRAPPING INTERLEUKIN-1 BETA” (Merck Sharp & Dohme LLC, priority 2023, published 2026).
Starred links: 1 amine or outer side, 2 acyl side, 3 side chain; linkers in the order of their positions; H or OH if unused. Non-standard residues stand in square brackets, D forms with d. Residues, ends and D or L forms follow the SMILES beside them. Phe(4-(trans-4-COOH-cHex)) = N[C@@H](Cc1ccc([C@H]2CC[C@H](C(=O)O)CC2)cc1)C(=O)O; Phe(4-(cis-4-COOH-cHex)) = N[C@@H](Cc1ccc([C@H]2CC[C@@H](C(=O)O)CC2)cc1)C(=O)O; Phe(4-(5-CO2H-2-pyrimidyl)) = N[C@@H](Cc1ccc(-c2ncc(C(=O)O)cn2)cc1)C(=O)O; X16 = Cn1cnc(-c2ccc(C[C@H]3CCN([*:1])[C@H]3C(=O)[*:2])cc2)c1; Trp(βS-Me,4-F) = C[C@@H](c1c[nH]c2cccc(F)c12)[C@H](N)C(=O)O; 3Aminoazetidine3carboxyl = O=C(C1(N[*:1])CN([*:3])C1)[*:2]; Bip(4'-COOH) = N[C@@H](Cc1ccc(-c2ccc(C(=O)O)cc2)cc1)C(=O)O; Ala(1-bicyclo(1.1.1)pentyl) = N[C@@H](CC12CC(C1)C2)C(=O)O; dPro(4R-Bzl(4-F)) = O=C(O)[C@H]1C[C@@H](Cc2ccc(F)cc2)CN1; X14 = O=C([C@H]1[C@@H](Cc2ccccc2)CCN1[*:1])[*:2]; X9 = O=C([C@H]1[C@@H](Cc2cncnc2)CCN1[*:1])[*:2]; Ala(pyrimidin-5-yl) = N[C@@H](Cc1cncnc1)C(=O)O; Phe(4-COOH) = N[C@@H](Cc1ccc(C(=O)O)cc1)C(=O)O; Pro(cis-4-F) = O=C(O)[C@@H]1C[C@H](F)CN1; AEF = NCCOc1ccc(C[C@H](N)C(=O)O)cc1; 2Pal = N[C@@H](Cc1ccccn1)C(=O)O; 3Pal = N[C@@H](Cc1cccnc1)C(=O)O; 4Pal = N[C@@H](Cc1ccncc1)C(=O)O; αMeK = C[C@](N)(CCCCN)C(=O)O; Api = NC1(C(=O)O)CCNCC1; Dab = NCC[C@H](N)C(=O)O; Aib = CC(C)(N)C(=O)O

What follows are compounds tested against T1, IL-1β (Homo sapiens, UniProt P01584) (assay: IL-6 assay in MRC5 cells: inhibition of IL-1β induced IL-6 secretion (AlphaLISA)). Settings: inhibition of IL-1β induced IL-6 secretion in MRC5 cells; read-out: MRC5 IC50.
T1 construct: purchased BioLegend 579404
T1 sequence (P01584 117-269): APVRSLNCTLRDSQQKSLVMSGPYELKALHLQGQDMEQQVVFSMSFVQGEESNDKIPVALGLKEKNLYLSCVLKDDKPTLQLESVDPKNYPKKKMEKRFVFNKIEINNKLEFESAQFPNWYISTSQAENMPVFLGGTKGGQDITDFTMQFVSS
Type: cell-based
How it was run: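 Compound was pre-incubated 1 h at ambient temperature with recombinant human IL-1β at 2λ EC80 before adding human lung fibroblast MRC5 cells (3000/well) in EMEM with 0.025% BSA. After overnight culture at 37 °C, 5% CO2, secreted IL-6 in conditioned medium was measured by AlphaLISA; IC50 from 4-parameter logistic fits.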

Compound | IC50 [pM]
C[C@@H](c1c[nH]c2cccc(F)c12)[C@@H]1NC(=O)[C@@H]2C[C@H](F)CN2C(=O)CNC(=O)[C@H](Cc2ccc(C(=O)O)cc2)NC(=O)[C@H](Cc2ccncc2)NC(=O)[C@H](Cc2ccc(-c3ccc(C(=O)O)cc3)cc2)NC(=O)[C@H]2[C@@H](Cc3ccc(-c4cn(C)cn4)cc3)CCN2C(=O)CNC(=O)[C@H](CCN)NC(=O)[C@H](CCC(N)=O)NC(=O)[C@H](Cc2cncnc2)NC(=O)C(C)(C)NC(=O)[C@H](Cc2c[nH]c3ccccc23)NC(=O)[C@H](CCC(=O)O)NC(=O)C(C)(C)NC1=O [Example 64] (cyclo([Bip(4'-COOH)][4Pal][Phe(4-COOH)]G[Pro(cis-4-F)][Trp(βS-Me,4-F)][Aib]EW[Aib][Ala(pyrimidin-5-yl)]Q[Dab]G[X16])) | 14
C[C@@H](c1c[nH]c2cccc(F)c12)[C@@H]1NC(=O)[C@@H]2C[C@H](F)CN2C(=O)CNC(=O)[C@H](Cc2ccc(C(=O)O)cc2)NC(=O)[C@H](Cc2ccncc2)NC(=O)[C@H](Cc2ccc(-c3ccc(C(=O)O)cc3)cc2)NC(=O)[C@H]2C[C@@H](Cc3ccc(F)cc3)CN2C(=O)CNC(=O)[C@H](CCN)NC(=O)[C@H](CCC(N)=O)NC(=O)[C@H](Cc2cncnc2)NC(=O)C2(CCNCC2)NC(=O)[C@H](Cc2c[nH]c3ccccc23)NC(=O)[C@H](CCC(=O)O)NC(=O)C(C)(C)NC1=O [Example 65] (cyclo([Bip(4'-COOH)][4Pal][Phe(4-COOH)]G[Pro(cis-4-F)][Trp(βS-Me,4-F)][Aib]EW[Api][Ala(pyrimidin-5-yl)]Q[Dab]G[dPro(4R-Bzl(4-F))])) | 25
C[C@@H](c1c[nH]c2cccc(F)c12)[C@@H]1NC(=O)[C@@H]2C[C@H](F)CN2C(=O)CNC(=O)[C@H](Cc2ccc(C(=O)O)cc2)NC(=O)[C@H](Cc2ccncc2)NC(=O)[C@H](Cc2ccc(-c3ccc(C(=O)O)cc3)cc2)NC(=O)[C@H]2C[C@@H](Cc3ccc(F)cc3)CN2C(=O)CNC(=O)[C@H](CCN)NC(=O)[C@H](CCC(N)=O)NC(=O)[C@H](Cc2cncnc2)NC(=O)C(C)(C)NC(=O)[C@H](Cc2c[nH]c3ccccc23)NC(=O)[C@H](CCC(=O)O)NC(=O)[C@](C)(CCCCN)NC1=O [Example 66] (cyclo([Bip(4'-COOH)][4Pal][Phe(4-COOH)]G[Pro(cis-4-F)][Trp(βS-Me,4-F)][αMeK]EW[Aib][Ala(pyrimidin-5-yl)]Q[Dab]G[dPro(4R-Bzl(4-F))])) | 28
C[C@@H](c1c[nH]c2cccc(F)c12)[C@@H]1NC(=O)[C@@H]2C[C@H](F)CN2C(=O)CNC(=O)[C@H](Cc2ccc(C(=O)O)cc2)NC(=O)[C@H](Cc2ccncc2)NC(=O)[C@H](Cc2ccc(-c3ccc(C(=O)O)cc3)cc2)NC(=O)[C@H]2C[C@@H](Cc3ccc(F)cc3)CN2C(=O)CNC(=O)[C@H](CCN)NC(=O)[C@H](CCC(N)=O)NC(=O)[C@H](Cc2cncnc2)NC(=O)[C@](C)(CCCCN)NC(=O)[C@H](Cc2c[nH]c3ccccc23)NC(=O)[C@H](CCC(=O)O)NC(=O)C(C)(C)NC1=O [Example 67] (cyclo([4Pal][Phe(4-COOH)]G[Pro(cis-4-F)][Trp(βS-Me,4-F)][Aib]EW[αMeK][Ala(pyrimidin-5-yl)]Q[Dab]G[dPro(4R-Bzl(4-F))][Bip(4'-COOH)])) | 21
C[C@@H](c1c[nH]c2cccc(F)c12)[C@@H]1NC(=O)[C@@H]2C[C@H](F)CN2C(=O)CNC(=O)[C@H](Cc2ccc(C(=O)O)cc2)NC(=O)[C@H](Cc2ccncc2)NC(=O)[C@H](Cc2ccc([C@H]3CC[C@H](C(=O)O)CC3)cc2)NC(=O)[C@H]2C[C@@H](Cc3ccc(F)cc3)CN2C(=O)CNC(=O)[C@H](CCN)NC(=O)[C@H](CCC(N)=O)NC(=O)[C@H](Cc2cncnc2)NC(=O)C2(CNC2)NC(=O)[C@H](Cc2c[nH]c3ccccc23)NC(=O)[C@H](CCC(=O)O)NC(=O)C(C)(C)NC1=O [Example 68] (cyclo([Phe(4-(trans-4-COOH-cHex))][4Pal][Phe(4-COOH)]G[Pro(cis-4-F)][Trp(βS-Me,4-F)][Aib]EW[3Aminoazetidine3carboxyl][Ala(pyrimidin-5-yl)]Q[Dab]G[dPro(4R-Bzl(4-F))])) | 29
C[C@@H](c1c[nH]c2cccc(F)c12)[C@@H]1NC(=O)[C@@H]2C[C@H](F)CN2C(=O)CNC(=O)[C@H](Cc2ccc(C(=O)O)cc2)NC(=O)[C@H](Cc2ccncc2)NC(=O)[C@H](Cc2ccc([C@H]3CC[C@@H](C(=O)O)CC3)cc2)NC(=O)[C@H]2C[C@@H](Cc3ccc(F)cc3)CN2C(=O)CNC(=O)[C@H](CCN)NC(=O)[C@H](CCC(N)=O)NC(=O)[C@H](Cc2cncnc2)NC(=O)C2(CNC2)NC(=O)[C@H](Cc2c[nH]c3ccccc23)NC(=O)[C@H](CCC(=O)O)NC(=O)C(C)(C)NC1=O [Example 69] (cyclo([Phe(4-(cis-4-COOH-cHex))][4Pal][Phe(4-COOH)]G[Pro(cis-4-F)][Trp(βS-Me,4-F)][Aib]EW[3Aminoazetidine3carboxyl][Ala(pyrimidin-5-yl)]Q[Dab]G[dPro(4R-Bzl(4-F))])) | 30
C[C@@H](c1c[nH]c2cccc(F)c12)[C@@H]1NC(=O)[C@@H]2C[C@H](F)CN2C(=O)CNC(=O)[C@H](Cc2ccc(C(=O)O)cc2)NC(=O)[C@H](Cc2ccncc2)NC(=O)[C@H](Cc2ccc(-c3ccc(C(=O)O)cc3)cc2)NC(=O)[C@H]2[C@@H](Cc3cncnc3)CCN2C(=O)CNC(=O)[C@H](CCN)NC(=O)[C@H](CCC(N)=O)NC(=O)[C@H](Cc2cncnc2)NC(=O)C(C)(C)NC(=O)[C@H](Cc2c[nH]c3ccccc23)NC(=O)[C@H](CCC(=O)O)NC(=O)C(C)(C)NC1=O [Example 71] (cyclo([Bip(4'-COOH)][4Pal][Phe(4-COOH)]G[Pro(cis-4-F)][Trp(βS-Me,4-F)][Aib]EW[Aib][Ala(pyrimidin-5-yl)]Q[Dab]G[X9])) | 58
C[C@@H](c1c[nH]c2cccc(F)c12)[C@@H]1NC(=O)[C@@H]2C[C@H](F)CN2C(=O)CNC(=O)[C@H](Cc2ccc(C(=O)O)cc2)NC(=O)[C@H](Cc2ccncc2)NC(=O)[C@H](Cc2ccc(-c3ccc(C(=O)O)cc3)cc2)NC(=O)[C@H]2C[C@@H](Cc3ccc(F)cc3)CN2C(=O)CNC(=O)[C@H](CCN)NC(=O)[C@H](CCC(N)=O)NC(=O)[C@H](Cc2cccnc2)NC(=O)C(C)(C)NC(=O)[C@H](Cc2c[nH]c3ccccc23)NC(=O)[C@H](CCC(=O)O)NC(=O)C(C)(C)NC1=O [Example 72] (cyclo([3Pal]Q[Dab]G[dPro(4R-Bzl(4-F))][Bip(4'-COOH)][4Pal][Phe(4-COOH)]G[Pro(cis-4-F)][Trp(βS-Me,4-F)][Aib]EW[Aib])) | 27
C[C@@H](c1c[nH]c2cccc(F)c12)[C@@H]1NC(=O)[C@@H]2C[C@H](F)CN2C(=O)CNC(=O)[C@H](Cc2ccc(C(=O)O)cc2)NC(=O)[C@H](Cc2ccncc2)NC(=O)[C@H](Cc2ccc(-c3ccc(C(=O)O)cc3)cc2)NC(=O)[C@H]2C[C@@H](Cc3ccc(F)cc3)CN2C(=O)CNC(=O)[C@H](CCN)NC(=O)[C@H](CCC(N)=O)NC(=O)[C@H](Cc2ccccn2)NC(=O)C(C)(C)NC(=O)[C@H](Cc2c[nH]c3ccccc23)NC(=O)[C@H](CCC(=O)O)NC(=O)C(C)(C)NC1=O [Example 73] (cyclo([Bip(4'-COOH)][4Pal][Phe(4-COOH)]G[Pro(cis-4-F)][Trp(βS-Me,4-F)][Aib]EW[Aib][2Pal]Q[Dab]G[dPro(4R-Bzl(4-F))])) | 31
C[C@@H](c1c[nH]c2cccc(F)c12)[C@@H]1NC(=O)[C@@H]2C[C@H](F)CN2C(=O)CNC(=O)[C@H](Cc2ccc(C(=O)O)cc2)NC(=O)[C@H](Cc2ccncc2)NC(=O)[C@H](Cc2ccc(-c3ccc(C(=O)O)cc3)cc2)NC(=O)[C@H]2C[C@@H](Cc3ccc(F)cc3)CN2C(=O)CNC(=O)[C@H](CCCNC(=N)N)NC(=O)[C@H](CCC(N)=O)NC(=O)[C@H](Cc2ccncc2)NC(=O)C(C)(C)NC(=O)[C@H](Cc2c[nH]c3ccccc23)NC(=O)[C@H](CCC(=O)O)NC(=O)C(C)(C)NC1=O [Example 76] (cyclo([Bip(4'-COOH)][4Pal][Phe(4-COOH)]G[Pro(cis-4-F)][Trp(βS-Me,4-F)][Aib]EW[Aib][4Pal]QRG[dPro(4R-Bzl(4-F))])) | 59
CC(=O)NCCOc1ccc(C[C@@H]2NC(=O)[C@H]3[C@@H](Cc4ccccc4)CCN3C(=O)CNC(=O)[C@H](CCN)NC(=O)[C@H](CCC(N)=O)NC(=O)[C@H](Cc3cncnc3)NC(=O)C(C)(C)NC(=O)[C@H](Cc3c[nH]c4ccccc34)NC(=O)[C@H](CCC(=O)O)NC(=O)C(C)(C)NC(=O)[C@H]([C@@H](C)c3c[nH]c4cccc(F)c34)NC(=O)[C@@H]3C[C@H](F)CN3C(=O)CNC(=O)[C@H](Cc3ccc(C(=O)O)cc3)NC(=O)[C@H](Cc3ccncc3)NC2=O)cc1 [Example 78] (cyclo([AEF](Ac)[4Pal][Phe(4-COOH)]G[Pro(cis-4-F)][Trp(βS-Me,4-F)][Aib]EW[Aib][Ala(pyrimidin-5-yl)]Q[Dab]G[X14])) | 36
C[C@@H](c1c[nH]c2cccc(F)c12)[C@@H]1NC(=O)[C@@H]2C[C@H](F)CN2C(=O)CNC(=O)[C@H](Cc2ccc(C(=O)O)cc2)NC(=O)[C@H](Cc2ccncc2)NC(=O)[C@H](Cc2ccc(-c3ncc(C(=O)O)cn3)cc2)NC(=O)[C@H]2C[C@@H](Cc3ccc(F)cc3)CN2C(=O)CNC(=O)[C@H](CCN)NC(=O)[C@H](CCC(N)=O)NC(=O)[C@H](Cc2ccncc2)NC(=O)C2(CNC2)NC(=O)[C@H](Cc2c[nH]c3ccccc23)NC(=O)[C@H](CCC(=O)O)NC(=O)C(C)(C)NC1=O [Example 81] (cyclo([Phe(4-(5-CO2H-2-pyrimidyl))][4Pal][Phe(4-COOH)]G[Pro(cis-4-F)][Trp(βS-Me,4-F)][Aib]EW[3Aminoazetidine3carboxyl][4Pal]Q[Dab]G[dPro(4R-Bzl(4-F))])) | 49
C[C@@H](c1c[nH]c2cccc(F)c12)[C@@H]1NC(=O)[C@@H]2C[C@H](F)CN2C(=O)CNC(=O)[C@H](Cc2ccc(C(=O)O)cc2)NC(=O)[C@H](CC23CC(C2)C3)NC(=O)[C@H](Cc2ccc(-c3ncc(C(=O)O)cn3)cc2)NC(=O)[C@H]2C[C@@H](Cc3ccc(F)cc3)CN2C(=O)CNC(=O)[C@H](CCN)NC(=O)[C@H](CCC(N)=O)NC(=O)[C@H](Cc2cncnc2)NC(=O)C(C)(C)NC(=O)[C@H](Cc2c[nH]c3ccccc23)NC(=O)[C@H](CCC(=O)O)NC(=O)C(C)(C)NC1=O [Example 82] (cyclo([Phe(4-(5-CO2H-2-pyrimidyl))][Ala(1-bicyclo(1.1.1)pentyl)][Phe(4-COOH)]G[Pro(cis-4-F)][Trp(βS-Me,4-F)][Aib]EW[Aib][Ala(pyrimidin-5-yl)]Q[Dab]G[dPro(4R-Bzl(4-F))])) | 54
